Measured values as given in US9227991B2, “Anti-tumor bivalent platinum complex and preparation method for complex and ligand of complex” (SOUTHEAST UNIVERSITY, priority 2012, dated 2016).

Experiments:
mouse = details: cited from earlier work
[1] = system: human breast cancer drug resistant cell MCF-7; experiment: MTT cytotoxicity test, MCF-7 drug resistant; assay type: cell-based; details: 48 hours
Experimental: (§1) This test example adopts MTT method to conduct cytotoxicity test on the complexes of the present invention and the common clinical anti-cancer platinum drugs.
(§2) Select cells in logarithmic phase, count them and inoculate them in a 96-well culture plate, at about 8000-10000 cells/well. Cultivate the cells overnight, administrate drug after the cells are attached to the wall, and set a drug group, a positive control group and a negative control group. The complex to be tested is prepared into a stock solution by using 5% glucose aqueous solution. Before use, it is diluted with cell culture medium into solutions at a series of concentrations. Each concentration has 3 duplicate wells. Cultivate for 48 hours after administration of drug, add 20 μL of 5 mg/mL MTT, incubate at 37° C. for 4 hours, remove the supernate and add 150 μL of DMSO-dissolved formazan. Determine OD value of every well at 490 nm wavelength by microplate reader, calculate inhibition rate, draw a concentration-inhibition rate curve and calculate value IC50.

[2] = system: human large cell lung cancer cell NCI-H460; experiment: MTT cytotoxicity test, NCI-H460; assay type: cell-based; details: 48 hours
Experimental: as §1, §2

[3] = system: human hepatoma carcinoma cell SMMC-7721; experiment: MTT cytotoxicity test, SMMC-7721; assay type: cell-based; details: SMMC-7721, MTT, 48 hours
Experimental: as §1, §2

[4] = system: human acute promyelocytic leukemia cell NB4; experiment: MTT cytotoxicity test, NB4; assay type: cell-based; details: 48 hours
Experimental: as §1, §2

[5] = system: human lung cancer cell A549; experiment: MTT cytotoxicity test, A549; assay type: cell-based; details: 48 hours
Experimental: as §1, §2

[6] = system: human gastric adenocarcinoma cell BGC823; experiment: MTT cytotoxicity test, BGC823; assay type: cell-based; details: 48 hours
Experimental: as §1, §2

[7] = system: human hepatoma carcinoma cell HepG-2; experiment: MTT cytotoxicity test, HepG2; assay type: cell-based; details: 48 hours
Experimental: as §1, §2

[8] = system: human umbilical vein endothelial cell HUVEC; experiment: MTT cytotoxicity test, HUVEC; assay type: cell-based; details: 48 hours
Experimental: as §1, §2

[9] = system: human erythroleukemia cell K562; experiment: MTT cytotoxicity test, K562; assay type: cell-based; details: 48 hours
Experimental: as §1, §2

[10] = system: human breast cancer cell MDA-MB-231; experiment: MTT cytotoxicity test, MDA-MB-231; assay type: cell-based; details: MDA-MB-231, MTT, 48 hours
Experimental: as §1, §2

[11] = system: human breast cancer cell MCF-7; experiment: MTT cytotoxicity test, MCF-7; assay type: cell-based; details: MCF-7, MTT, 48 hours
Experimental: as §1, §2

Solubility in water = assay type: physicochemical
Experimental: As for the platinum complex prepared by the method of the present invention, the molecular structures of the compounds are determined by H NMR, HR ESI-MS and elemental analysis and their solubility in water was determined.

[12] = system: mouse-transplanted tumor Heps; experiment: Mouse-transplanted tumor animal model, Heps; assay type: in vivo, ICR mice; details: Heps mice; for Number of Animal End of the test: 8 at beginning
Experimental: (§3) This test example adopts mouse-transplanted tumor animal model method to test the inhibitory effects of the complexes provided by the present invention on animal-transplanted tumor S180 sarcoma and Heps tumor.
(§4) Get ICR mice and inoculate solid tumor according to the research method of transplanted tumor. Weigh the mice 24 hours after the inoculation and randomly divide them into 7 groups, 8 mice per drug group. Administrate drug by intravenous injection for the first time 24 hours (d1) after the inoculation, administrate drug once every other day for a total of 4 times, at a dose of 0.4 ml/20 g each time. Kill and weigh the tumor-bearing mice days (d10) after the inoculation, separate and weigh the tumor mass, and conduct statistical treatment of all the obtained data (t-test). The inhibitory effect of the complexes on mouse-transplanted tumors S180 and Heps is shown in Table 2 and Table 3 respectively.

[13] = system: mouse-transplanted tumor S180 sarcoma; experiment: Mouse-transplanted tumor animal model, S180; assay type: in vivo, ICR mice; details: S180 mice; for Number of Animal End of the test: 10 at beginning
Experimental: as §3
as §4, with “Weigh the mice 24 hours after the inoculation and randomly divide them into 7 groups, 8 mice per drug group.” left out

[14] = Acute toxicity test in mice (iv), Bliss method; details: both, Kunming, mouse, in vivo, iv
Experimental: (§5) The toxicity of the two platinum complexes provided by the present invention was preliminarily researched.
(§6) Select 50 Kunming mice of clean grade, 25 males and 25 females, with body weight 18˜22 g, randomly divide them into 5 groups, 10 mice in each group, and fast for 12 hours. […] The acceptance capacity of an animal is 0.4 mL/20 g. Observe continuously for 14 days after administration, and record toxic symptoms and death of mice.

Kunming mice = experiment: Acute toxicity test in mice (iv), Bliss method; details: mice, iv via caudal vein, 14 days observation, Bliss method
Experimental: as §5, §6

[15] = 25 mg/kg iv every other day x4, X ± SD

Row | Compound | IC50 [1] [µM] | IC50 [2] [µM] | IC50 [3] [µM] | IC50 [4] [µM] | IC50 [5] [µM] | IC50 [6] [µM] | IC50 [7] [µM] | IC50 [8] [µM] | IC50 [9] [µM] | IC50 [10] [µM] | IC50 [11] [µM] | Body weight (g) After administration [12, 15] [g] | Number of Animal End of the test ([12]; 25 mg/kg iv every other day x4) | Number of Animal End of the test ([12]; 50 mg/kg iv every other day x4) | further results
1 | N.N.O=C([O-])C1(C(=O)[O-])CCC1.[Pt+2] [Carboplatin, carboplatin] | 457 | 30.6 | 52.7 | 12.6 | 137 | 43.2 | 99.1 | 102 | 118 | 93.3 | 109 |  |  |  | mouse LD50 values in literature (mouse): 139.00 mg/kg
2 | N.N.[Cl][Pt][Cl] [Cis-platinum, cis-platinum] | 32.9 |  |  |  | 16.6 | 5.44 | 2.11 | 11.2 | 10.9 | 18.3 | 32.9 |  |  |  | 
3 | [NH2][Pt]1([NH2])[O]C(=O)C2(CC(=O)C2)C(=O)[O]1 [GSH-5, cis-[3-ketone cyclobutane-1,1-dicarboxylic acid radical.diamineplatinum (II)]] |  |  |  |  |  |  |  |  |  |  |  | 22.13 ± 3.52 | 8 | 2 | solubility (Solubility in water): 16 mg/mL; Body weight (g) After administration ([12]; 50 mg/kg iv every other day x4, X ± SD): 13.50 ± 0.50 g; Body weight (g) After administration ([13]; 15 mg/kg iv every other day x4, X ± SD): 22.50 ± 1.91 g; Number of Animal End of the test ([13]; 15 mg/kg iv every other day x4): 10; Body weight (g) After administration ([13]; 30 mg/kg iv every other day x4, X ± SD): 18.13 ± 1.76 g; Number of Animal End of the test ([13]; 30 mg/kg iv every other day x4): 8; LD50 at 14 days [14]: 150 mg/kg
4 | N[C@@H]1CCCC[C@H]1N.O=C1CC2(C1)C(=O)[O][Pt][O]C2=O [GSH-6, cis-[3-ketone-1,1-cyclobutane-dicarboxylic acid radical.trans-1,2-cyclohexanediamineplatinum(II)]] | 1350 | 11.9 | 216 | 3.1 | 47.5 | 8.9 | 31.6 | 68.9 | 36 | 36.3 | 34.2 | 18.10 ± 1.10 | 8 | 0 | Tumor inhibition rate (%) ([12]; 25 mg/kg iv every other day x4, d10): 35.44%; Tumor weight ([12]; 25 mg/kg iv every other day x4, d10, X ± SD): 0.84 ± 0.17 g; Body weight (g) After administration ([13]; 10 mg/kg iv every other day x4, X ± SD): 20.60 ± 2.50 g; Tumor inhibition rate (%) ([13]; 10 mg/kg iv every other day x4, d10): 33.13%; Tumor weight ([13]; 10 mg/kg iv every other day x4, d10, X ± SD): 0.65 ± 0.14 g; Number of Animal End of the test ([13]; 10 mg/kg iv every other day x4): 10; Body weight (g) After administration ([13]; 20 mg/kg iv every other day x4, X ± SD): 18.60 ± 2.24 g; Tumor inhibition rate (%) ([13]; 20 mg/kg iv every other day x4, d10): 46.61%; Tumor weight ([13]; 20 mg/kg iv every other day x4, d10, X ± SD): 0.52 ± 0.13 g; Number of Animal End of the test ([13]; 20 mg/kg iv every other day x4): 10; LD50 (acute toxicity test) (Kunming mice): 100 mg/kg
5 | O=C1[O][Pt]2([NH][C@@H]3CCCC[C@H]3[NH]2)[O]C1=O [Oxaliplatin, oxaliplatin] | 351 | 23.1 | 32.3 |  | 70.3 | 7.92 | 27.2 | 16.3 | 23.6 | 29.1 | 25.7 |  |  |  | 
